In publication PMC7615053 (Nature methods, 2023):
pEC50: −log10 of the molar value. Like-named read-outs stand apart in the source and are kept apart here. Values belong to the molecule of their own block, whether it stands above or below them.

Key:
GRABNE1m [1] = system: GRABNE1m
[2] = system: tail-lift-induced NE release; experiment: Fiber photometry in lateral hypothalamus during tail-lifting; assay type: in vivo, mouse; details: trazodone 1 mg/kg or yohimbine 4 mg/kg, i.p., mice
GRABNE1m [3] = experiment: Confocal imaging of GRABNE1m in HEK293T cells; assay type: cell-based
nLightR [4] = biological target: T1, nLightR (Physeter macrocephalus, UniProt A0A2Y9EW94); experiment: Confocal imaging of nLightR in HEK293T cells; assay type: cell-based, sperm whale; details: for fluorescence response of nLightR to neurotransmitter: 10 μM, HEK293T cells
T1 sequence (A0A2Y9EW94 with tags, fused parts or gaps): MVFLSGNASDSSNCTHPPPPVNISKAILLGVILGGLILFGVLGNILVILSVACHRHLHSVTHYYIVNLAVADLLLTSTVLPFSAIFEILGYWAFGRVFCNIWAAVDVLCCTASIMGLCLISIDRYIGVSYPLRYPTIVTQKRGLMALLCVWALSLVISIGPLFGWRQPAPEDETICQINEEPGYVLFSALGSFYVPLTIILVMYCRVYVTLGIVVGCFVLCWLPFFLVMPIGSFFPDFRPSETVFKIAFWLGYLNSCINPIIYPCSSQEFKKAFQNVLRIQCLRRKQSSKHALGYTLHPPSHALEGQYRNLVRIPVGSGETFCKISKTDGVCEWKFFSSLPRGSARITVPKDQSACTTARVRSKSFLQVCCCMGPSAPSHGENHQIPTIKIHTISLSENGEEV

nLightR [5] = biological target: T1, nLightR; experiment: Ligand perfusion on acute brain slices; set-up: species or system sperm whale
nLightG [6] = biological target: T2, nLightG (Physeter macrocephalus, UniProt A0A2Y9EW94); experiment: Confocal imaging of nLightG in HEK293T cells; assay type: cell-based, sperm whale; details: for fluorescence response of nLightG to neurotransmitter: 10 μM, HEK293T cells
T2 sequence (A0A2Y9EW94 with tags, fused parts or gaps): T1 sequence (A0A2Y9EW94 with tags, fused parts or gaps)

nLightG [7] = biological target: T2, nLightG; experiment: Ligand perfusion on acute brain slices; set-up: species or system sperm whale
[8] = system: optogenetically-evoked NE release; experiment: Dual-site fiber photometry in LC and dHPC during optogenetic LC stimulation; assay type: in vivo, mouse; details: desipramine 10 μg/g i.p., awake mice
[9] = system: optogenetically-evoked NE signals; assay type: in vivo, mouse; details: yohimbine 4 mg/kg i.p., vHPC, isoflurane anesthesia, 5 Hz LC stimulation
[10] = biological target: T3, sperm whale-based indicator (Alpha-1 AR, red prototype) (Physeter macrocephalus, UniProt A0A2Y9EW94); experiment: Dose-response of the sperm whale-based red indicator prototype in HEK293T cells; assay type: cell-based
T3 sequence (A0A2Y9EW94 with tags, fused parts or gaps): T1 sequence (A0A2Y9EW94 with tags, fused parts or gaps)

nLightG [11] = biological target: T2, nLightG; experiment: NanoBiT complementation assay in HEK293T cells; assay type: cell-based, sperm whale; details: NE 10 μM
[12] = system: green fluorescent NE indicator prototype (sperm whale Alpha-1 AR); experiment: Fluorescence response of the green NE indicator prototype; assay type: cell-based; details: green prototype with fluorescent protein module from dLight1.3b
swAlpha-1 AR [13] = assay type: cell-based, sperm whale; details: NE 10 μM, wild-type swAlpha-1 AR, HEK293T
nLightG [14] = biological target: T2, nLightG; experiment: Intracellular calcium signaling; assay type: cell-based, sperm whale; details: NE 10 μM, HEK293T
swAlpha-1 AR [15] = experiment: NanoBiT complementation assay in HEK293T cells; assay type: cell-based, sperm whale; details: NE 10 μM
nLightR [16] = biological target: T1, nLightR; experiment: Intracellular calcium signaling; assay type: cell-based, sperm whale; details: NE 10 μM, HEK293T
nLightR [17] = biological target: T1, nLightR; experiment: NanoBiT complementation assay in HEK293T cells; assay type: cell-based, sperm whale; details: NE 10 μM
human DRD1 = details: DA 10 μM, DRD1 (positive control)
nLightG [18] = biological target: T2, nLightG; experiment: Plate reader dose-response of nLightG in HEK293T cells; assay type: cell-based, sperm whale
nLightR [19] = biological target: T1, nLightR; experiment: Plate reader dose-response of nLightR in HEK293T cells; assay type: cell-based, sperm whale
GRABNE1m [20] = details: HEK293T cells
[21] = trazodone 10 μM after NE 50 μM, brain slices
[22] = after NE 10 μM, Trz 10 μM, HEK293T cells and neurons

- effect of antagonist on NE-induced activation of nLightR (nLightR [4]; [22]): fully reversed
- effect on NE-induced response (nLightR [5]; [21]): largely reversed
- effect of antagonist on NE-induced activation of nLightG (nLightG [6]; [22]): fully reversed
- effect on NE-induced response (nLightG [7]; [21]): largely reversed
Compound: O=c1n(CCCN2CCN(c3cccc(Cl)c3)CC2)nc2ccccn12 [trazodone]
- effect on NE-induced response (GRABNE1m [1]; [21]): no significant effect
- effect on tail-lift-induced GRABNE1m signals [2]: no effect
- effect on tail-lift-induced response of nLightG [2]: significantly reduced
- effect on tail-lift-induced response of nLightR [2]: significantly reduced
- effect of antagonist on NE-induced activation of GRABNE1m (GRABNE1m [3]; after NE 10 μM, Trz 100 nM, Yoh 100 nM, HEK293T): not affected

- fluorescence response of nLightR to neurotransmitter (nLightR [4]): significant fluorescence response
- fluorescence response of nLightG to neurotransmitter (nLightG [6]): significant fluorescence response
Compound: CNC[C@H](O)c1ccc(O)c(O)c1 [epinephrine]

- pEC50 [10]: 6.24
- coupling to mini-Gq, mini-Gs or mini-Gi (nLightG [11]): did not lead to a significant coupling
- recruitment of β-arrestin-2 (nLightG [11]): no recruitment
- intracellular Ca2+ concentration (nLightG [14]): did not induce a significant increase
- fluorescence response of nLightR to neurotransmitter (nLightR [4]): significant fluorescence response
- intracellular Ca2+ concentration (nLightR [16]): did not induce a significant increase
- fluorescence response of nLightG to neurotransmitter (nLightG [6]): significant fluorescence response
- coupling to mini-Gq, mini-Gs or mini-Gi (nLightR [17]): did not lead to a significant coupling
- recruitment of β-arrestin-2 (nLightR [17]): no recruitment
Compound: NC[C@H](O)c1ccc(O)c(O)c1 [NE, norepinephrine]
- ΔF/F0 response [12]: approximately 1000%
- intracellular Ca2+ concentration (swAlpha-1 AR [13]): significant increase
- coupling to mini-Gi (swAlpha-1 AR [15]): no significant coupling
- coupling to mini-Gq and mini-Gs (swAlpha-1 AR [15]): significant coupling

Second part, the molecule before the results:

Compound: CNCCCN1c2ccccc2CCc2ccccc21 [desipramine]
- effect on magnitude and decay kinetics of the nLightG response in LC [8]: significant increase

Compound: COC(=O)[C@@H]1[C@H]2C[C@H]3c4[nH]c5ccccc5c4CCN3C[C@@H]2CC[C@@H]1O [yohimbine]
- effect on optogenetically-evoked NE signals monitored via GRABNE1m [9]: significantly attenuated
- effect on optogenetically-evoked NE signals reported by nLightG [9]: did not have a significant effect
- effect on tail-lift-induced GRABNE1m signals [2]: strongly attenuated
- effect on tail-lift-induced response of nLightG [2]: increased
- effect on tail-lift-induced response of nLightR [2]: increased
- effect of antagonist on NE-induced activation of GRABNE1m (GRABNE1m [3]): fully inactivated

Compound: NCCc1ccc(O)c(O)c1 [DA, dopamine]
- response to DA relative to response to NE (GRABNE1m [1]; 50 μM, mouse LH brain slices): about 19%
- pEC50 [10]: 4.67
- recruitment of β-arrestin-2 (human DRD1): significant recruitment
- agonist character at nLightG (nLightG [18]): partial agonist
- EC50 of DA relative to that of NE (nLightG [18]; nLightG): approximately 30 fold
- agonist character at nLightR (nLightR [19]): partial agonist
- EC50 of DA relative to that of NE (nLightR [19]; nLightR): approximately 30 fold
- fluorescence response of nLightR to neurotransmitter (nLightR [4]): significant fluorescence response
- response to DA relative to response to identical concentration of NE (nLightR [5]; 50 μM, mouse LH brain slices): ~3%
- fluorescence response of nLightG to neurotransmitter (nLightG [6]): significant fluorescence response
- EC50 for DA relative to that for NE (GRABNE1m [20]): 8 fold
- maximal response to DA as fraction of the response to NE (GRABNE1m [20]): 35%
- response to DA relative to response to identical concentration of NE (nLightG [7]; 50 μM, mouse LH brain slices): about 12%
